Source: ChEMBL document CHEMBL1687690, “Antiproliferative and differentiating activities of a novel series of histone deacetylase inhibitors” (ACS Med Chem Lett, 2010)
The source made the active and inactive calls. The calls are words filed in the database; no cut-off is given here.

What was measured:
NB-4 [1] = assay: Antiproliferative activity against human NB4 cells after 24 hrs by alamar blue assay; type: functional, cell-based; conditions: NB-4, 24 h
[2] = target: T1, Histone deacetylase (Homo sapiens) (UniProt Q13547+O15379+Q9UBN7+Q92769+Q9UQL6+Q8WUI4+Q9BY41+Q96DB2+P56524+Q9UKV0+Q969S8); assay: Inhibition of HDAC activity in human NB4 cells assessed as maximum acetylation of histone H3 at EC50 concentration after 24 hrs by Western blot analysis relative to control; type: cell-based; conditions: NB-4
Histone deacetylase [3] = assay: Inhibition of HDAC activity in human NB4 cells assessed as acetylation of histone H4 after 24 hrs by Western blot analysis; type: cell-based; conditions: nb-4
[4] = target: T1, Histone deacetylase (Homo sapiens); assay: Inhibition of HDAC activity in human NB4 cells assessed as maximum acetylation of histone H4 at EC50 concentration after 24 hrs by Western blot analysis relative to control; type: cell-based; conditions: NB-4
HCT-116 [5] = assay: Antiproliferative activity against human HCT116 cells after 24 hrs by alamar blue assay; type: functional, cell-based; conditions: HCT-116, 24 h
Histone deacetylase [6] = assay: Inhibition of HDAC activity in human NB4 cells assessed as acetylation of histone H3 after 24 hrs by Western blot analysis; type: cell-based; conditions: nb-4
NB-4 [7] = assay: Potentiation of all-trans retinoic acid-induced human NB4 cells differentiation after 72 hrs by NBT-reductase activity assay relative HDAC inhibitor alone; type: functional
[8] = target: T1, Histone deacetylase (Homo sapiens); assay: Inhibition of HDAC activity in human NB4 cells assessed as maximum acetylated tubulin at EC50 concentration after 24 hrs by Western blot analysis relative to control; type: cell-based; conditions: NB-4
HCT-116 [9] = assay: Antitumor activity against human HCT116 cells xenografted in athymic nude mouse assessed as decrease in tumor volume at 25 mg/kg, iv administered once daily for 5 days per week by caliper measurement; type: functional, organism-based; parameters: dose 25 mg/kg
Tubulin = assay: Inhibition of HDAC activity in human NB4 cells assessed as acetylated tubulin after 24 hrs by Western blot analysis; type: cell-based; conditions: nb-4
[10] = Ratio of IC50 for HDAC2 to IC50 for HDAC6
HCT-116 [11] = assay: Antitumor activity against human HCT116 cells xenografted in athymic nude mouse assessed as decrease in tumor volume at 12.5 mg/kg, iv administered once daily for 5 days per week by caliper measurement; type: functional, organism-based; parameters: dose 12.5 mg/kg
HCT-116 [12] = assay: Antitumor activity against human HCT116 cells xenografted in athymic nude mouse assessed as decrease in tumor volume at 6.2 mg/kg, iv administered once daily for 5 days per week by caliper measurement; type: functional, organism-based; parameters: dose 6.2 mg/kg

| Ratio [2] | EC50 (Histone deacetylase [3]) [nM] | Ratio [4] | IC50 (HCT-116 [5]) [nM] | EC50 (Histone deacetylase [6]) [nM] | Ratio [8] | EC50 (Tubulin) [nM] | Ratio IC50 [10] | SMILES | IC50 (NB-4 [1]) [nM] | Ratio (NB-4 [7]) | inhibition (HCT-116 [9]) | inhibition (HCT-116 [11]) | inhibition (HCT-116 [12]) |
| --- | --- | --- | --- | --- | --- | --- | --- | --- | --- | --- | --- | --- | --- |
| 12 | 150 | 28 | 90 | 190 | 47 | 130 |  | COc1ccc2c(c1)N(CCCCCC(=O)NO)C(=O)c1ccccc1S2 | 30 | 16 | Active |  |  |
| 61 | 320 | 206 | 310 | 200 | 1780 | 90 |  | COc1ccc2c(c1)N(CCCCCC(=O)NO)C(=O)c1ccccc1O2 | 140 | 7 |  |  |  |
| 190 | 430 | 89 | 390 | 460 | 2000 | 370 |  | O=C(CCCCCN1C(=O)c2ccccc2Sc2ccccc21)NO | 190 | 5 |  |  |  |
| 31 | 860 | 78 | 450 | 840 | 413 | 320 |  | O=C(CCCCCN1C(=O)c2ccccc2Nc2ccc(Cl)cc21)NO | 290 | 1 |  |  |  |
| 15 | 3270 | 54 | 640 | 6240 | 2630 | 290 | 61 | O=C(CCCCCN1C(=O)c2ccccc2Oc2ccccc21)NO | 610 | 2 |  |  |  |
| 2110 | 60 | 795 | 30 | 30 | 8850 | 40 |  | O=C(CCCCCN1C(=O)c2ccccc2S(=O)(=O)c2ccc(Cl)cc21)NO | 20 | 56 |  |  |  |
| 3 | 530 | 9 | 200 | 380 | 932 | 440 |  | O=C(CCCCCN1C(=O)c2ccccc2Oc2ccc(Cl)cc21)NO | 160 | 1 |  |  |  |
| 10 | 2950 | 14 | 8100 | 2650 | 40 | 2740 |  | CN1c2ccccc2C(=O)N(CCCCCC(=O)NO)c2ccccc21 | 2460 | 13 |  |  |  |
| 200 | 360 | 2330 | 60 | 340 | 13200 | 150 |  | O=C(CCCCCN1C(=O)c2ccccc2Sc2ccc(Cl)cc21)NO | 30 | 31 |  | Active | inactive |
| 7 | 280 | 244 | 360 | 390 | 199 | 250 |  | COc1ccc2c(c1)N(CCCCCC(=O)NO)C(=O)c1ccccc1N2 | 140 | 1 |  |  |  |
| 4740 | 90 | 1460 | 40 | 30 | 30600 | 50 |  | COc1ccc2c(c1)N(CCCCCC(=O)NO)C(=O)c1ccccc1S2(=O)=O | 20 | 79 |  |  |  |
| 188 | 1530 | 126 | > 10000 | 1300 | 402 | 1170 |  | O=C(CCCCCN1C(=O)c2ccccc2Nc2ccccc21)NO | 730 | 6 |  |  |  |
| 342 | 720 | 336 | 150 | 500 | 10700 | 50 | 48 | O=C(CCCCCN1C(=O)c2ccccc2S(=O)(=O)c2ccccc21)NO | 120 | 14 |  |  |  |
